Measured values published in patent US5972894A, “Peptides having potassium channel opener activity” (Cytran, Inc., priority 1997, dated 1999).
Residues, ends and D or L forms follow the SMILES beside them.

Legend:
Isolated Rat Heart = experiment: Inotropic function of normal isolated rat heart, Langendorff perfusion
Description: Rat heart specimens were obtained surgically from white random-bred male rats weighing approximately 250 g. The hearts were established in culture using retrograde heart perfusion according to the Langendorff method performed with a standard oxygenated (95% O2 and 5% CO2) Krebs-Henseleit solution through a glass aorta cannula. The retroperfusion pressure forces the aortic valves shut. In this way, the oxygenated solution passed only through the coronary vasculature of the heart such that both ventricles remain effectively empty. Perfusion conditions: An average constant perfusate flow rate of 15 to 25 ml/min was maintained with a constant perfusate pressure of 80 cm H2 O. Pressure Measurements: A latex balloon catheter connected with a pressure transducer ([…], Sweden) was inserted into the left ventricle of the heart to measure parameters of the inotropic function of the heart. The intraventricle pressure variation curve for the left ventricle was recorded with a polygraph. Experimental Protocol: GE and VT served as the test substances. After a 30-minute adaptation of the heart to the organ culture perfusion conditions, a set of basal (control) measurements was taken, as described in (i) through (v) below. […] See GOODMAN […] THE PHARMACOLOGICAL BASIS OF THERAPEUTICS 160 (Goodman et al., eds., 7th ed. 1985), incorporated herein by reference in its entirety for all purposes. Each dose of each respective test or reference substance was tested on four different rat hearts. The inotropic functions of each of the four rat hearts were evaluated by measuring: (i) the systolic pressure in the left ventricle ([…] diastolic pressure in the left ventricle ([…] evolving pressure (Pev. =[…]); (iv) the maximal rate of increase of left ventricle pressure (+dp/dtmax mm Hg/sec); and (v) the maximal rate of decrease of left ventricle pressure (-dp/dtmax mm Hg/sec). In addition, the heart rate (HR) of each heart was determined from the pressure variation recordings made of the left ventricle pressure.

rats = experiment: Early ischemic myocardial arrhythmias after coronary artery ligation; type: in vivo; conditions: for Number of Ventricular Extrasystoles / Overall Duration of Ventricular Tachycardia: 30 min after coronary occlusion
Description: White random-bred male rats weighing 200 g were given light ether anesthesia and were then immobilized and artificially ventilated. The descending branch of the left coronary artery of each rat was ligated. Immediately following ligation, a test or control substance was administered to each rat through the catheterized femoral vein, and an ECG recording was initiated (standard lead II) and maintained for the next 30 minutes.
GE and VT served as test substances and were administered to animals in the respective test groups at doses of 0.1, 1.0, and 10.0 mg/kg. The β-adrenergic blocking agent, propranolol (Obzidan, Germed, Germany), served as the positive control substance and was administered intravenously to each animal in the positive control group at a dose of 0.5 mg/kg. Physiological saline served as the negative control substance and was administered intravenously to animals in the negative control group. Each dose of each test or control substance was tested separately on a group of nine animals.
The following parameters were evaluated based upon the ECG recordings: (i) the number of ventricular extrasystoles that occurred within a 30-minute observation period following coronary occlusion; (ii) the overall cumulative duration of ventricular tachycardias (i.e., the summation of duration of individual paroxysmal ventricular rhythm disturbances in seconds) occurring within the 30-minute observation period; and (iii) the overall duration (in seconds) of the ventricular fibrillations occurring within the 30-minute observation period. The data were processed electronically and statistical comparisons were made between the values obtained from the animals in the experimental test groups and those in the different respective control groups.

NCC(=O)N[C@@H](CCC(=O)O)C(=O)O [GE, L-Glycyl-L-Glutamic acid] (H-Gly-Glu-OH)
effect on inotropic function and heart rate of normal heart (Isolated Rat Heart; 10, 100, 1000 μg): neither GE nor VT had a significant effect | +dp/dtmax % of Basal Level (Isolated Rat Heart; dose 10 mg (mg = microgram)): 102% | +dp/dtmax Subst. Level (Isolated Rat Heart; dose 10 mg (mg = microgram)): 1750 mm Hg/sec | -dp/dtmax % of Basal Level (Isolated Rat Heart; dose 10 mg (mg = microgram)): 94% | -dp/dtmax Subst. Level (Isolated Rat Heart; dose 10 mg (mg = microgram)): 985 mm Hg/sec | HR % of Basal Level (Isolated Rat Heart; dose 10 mg (mg = microgram)): 99% | HR abs, Subst. Level (Isolated Rat Heart; dose 10 mg (mg = microgram)): 202 hb/min | Pdiast % of Basal Level (Isolated Rat Heart; dose 10 mg (mg = microgram)): 95% | Pdiast abs, Subst. Level (Isolated Rat Heart; dose 10 mg (mg = microgram)): 9 mm Hg | Pev % of Basal Level (Isolated Rat Heart; dose 10 mg (mg = microgram)): 102% | Pev Subst. Level (Isolated Rat Heart; dose 10 mg (mg = microgram)): 94 mm Hg | Psyst % of Basal Level (Isolated Rat Heart; dose 10 mg (mg = microgram)): 102% | Psyst abs, Subst. Level (Isolated Rat Heart; dose 10 mg (mg = microgram)): 104 mm Hg | +dp/dtmax % of Basal Level (Isolated Rat Heart; dose 100 mg (mg = microgram)): 100% | +dp/dtmax Subst. Level (Isolated Rat Heart; dose 100 mg (mg = microgram)): 1723 mm Hg/sec | -dp/dtmax % of Basal Level (Isolated Rat Heart; dose 100 mg (mg = microgram)): 99% | -dp/dtmax Subst. Level (Isolated Rat Heart; dose 100 mg (mg = microgram)): 1055 mm Hg/sec | HR % of Basal Level (Isolated Rat Heart; dose 100 mg (mg = microgram)): 100% | HR abs, Subst. Level (Isolated Rat Heart; dose 100 mg (mg = microgram)): 203 hb/min | Pdiast % of Basal Level (Isolated Rat Heart; dose 100 mg (mg = microgram)): 100% | Pdiast abs, Subst. Level (Isolated Rat Heart; dose 100 mg (mg = microgram)): 11 mm Hg | Pev % of Basal Level (Isolated Rat Heart; dose 100 mg (mg = microgram)): 99% | Pev Subst. Level (Isolated Rat Heart; dose 100 mg (mg = microgram)): 88 mm Hg | Psyst % of Basal Level (Isolated Rat Heart; dose 100 mg (mg = microgram)): 99% | Psyst abs, Subst. Level (Isolated Rat Heart; dose 100 mg (mg = microgram)): 99 mm Hg | +dp/dtmax % of Basal Level (Isolated Rat Heart; dose 1000 mg (mg = microgram)): 94% | +dp/dtmax Subst. Level (Isolated Rat Heart; dose 1000 mg (mg = microgram)): 1618 mm Hg/sec | -dp/dtmax % of Basal Level (Isolated Rat Heart; dose 1000 mg (mg = microgram)): 96% | -dp/dtmax Subst. Level (Isolated Rat Heart; dose 1000 mg (mg = microgram)): 980 mm Hg/sec | HR % of Basal Level (Isolated Rat Heart; dose 1000 mg (mg = microgram)): 102% | HR abs, Subst. Level (Isolated Rat Heart; dose 1000 mg (mg = microgram)): 198 hb/min | Pdiast % of Basal Level (Isolated Rat Heart; dose 1000 mg (mg = microgram)): 100% | Pdiast abs, Subst. Level (Isolated Rat Heart; dose 1000 mg (mg = microgram)): 10 mm Hg | Pev % of Basal Level (Isolated Rat Heart; dose 1000 mg (mg = microgram)): 91% | Pev Subst. Level (Isolated Rat Heart; dose 1000 mg (mg = microgram)): 85 mm Hg | Psyst % of Basal Level (Isolated Rat Heart; dose 1000 mg (mg = microgram)): 92% | Psyst abs, Subst. Level (Isolated Rat Heart; dose 1000 mg (mg = microgram)): 94 mm Hg | Number of Ventricular Extrasystoles (rats; 0.1 mg/kg i.v.): 25.22 | Overall Duration of Ventricular Tachycardia (rats; 0.1 mg/kg i.v.): 38.67 s | Number of Ventricular Extrasystoles (rats; 1.0 mg/kg i.v.): 116.22 | Overall Duration of Ventricular Tachycardia (rats; 1.0 mg/kg i.v.): 93.17 s | Number of Ventricular Extrasystoles (rats; 10.0 mg/kg i.v.): 47.78 | Overall Duration of Ventricular Tachycardia (rats; 10.0 mg/kg i.v.): 51.78 s | effect on overall duration of ventricular tachycardias (rats; all of the tested doses): reduced the overall duration of ventricular tachycardias
